Measurements taken from patent US20110136787A1, “DIPHENYL AZEPANE, DIAZEPANE AND OXAZEPANE DERIVATIVES AND USES THEREOF” (priority 2009, published 2011).

How the values were obtained:
[1] = target: T1, Human Serotonin Transporter (hSERT) (Homo sapiens, UniProt P31645); test: hSERT scintillation proximity assay (SPA), competition with [3H]-Citalopram; type: binding; settings: pKi, membranes of HEK-293 cells expressing recombinant hSERT, read-out: SERT (converted)
T1 construct: expressed in transfected cells; host or cells: HEK-293, membrane preparation
T1 sequence (P31645 whole entry): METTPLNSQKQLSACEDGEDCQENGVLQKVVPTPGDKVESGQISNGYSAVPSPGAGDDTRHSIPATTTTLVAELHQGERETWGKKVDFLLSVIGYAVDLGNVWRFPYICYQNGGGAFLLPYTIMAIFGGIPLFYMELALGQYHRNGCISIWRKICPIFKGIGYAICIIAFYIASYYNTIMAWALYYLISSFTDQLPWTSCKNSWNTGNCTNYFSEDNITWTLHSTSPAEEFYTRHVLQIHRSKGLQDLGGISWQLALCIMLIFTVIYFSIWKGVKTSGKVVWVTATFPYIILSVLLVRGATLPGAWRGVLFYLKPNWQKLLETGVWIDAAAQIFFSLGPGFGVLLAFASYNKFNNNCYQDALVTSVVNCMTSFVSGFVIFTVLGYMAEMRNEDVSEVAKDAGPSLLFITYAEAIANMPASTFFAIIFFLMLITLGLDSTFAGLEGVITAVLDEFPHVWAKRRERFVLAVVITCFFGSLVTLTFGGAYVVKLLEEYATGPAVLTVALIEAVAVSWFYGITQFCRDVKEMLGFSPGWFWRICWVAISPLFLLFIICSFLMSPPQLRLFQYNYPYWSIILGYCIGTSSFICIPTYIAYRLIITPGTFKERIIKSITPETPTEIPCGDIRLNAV
Text: Screening for Human Serotonin Transporter (hSERT) Antagonists Using a Scintillation Proximity Assay (SPA)
The screening assay of this example was used to determine the affinity of ligands at the hSERT transporter by competition with [^3H]-Citalopram.
Scintillation Proximity Assay (SPA) works by bringing radioligand within close proximity to the bead's scintillant to stimulate light emission. In this assay, the receptor-containing membranes were pre-coupled to the SPA beads and the binding of the appropriate radioligand to the transporter was measured. The light emission was proportional to the amount of bound radioligand. Unbound radioligand produced no signal as a result of distant proximity to scintillant (lack of energy transfer).
(§1) HEK-293 cells (Tatsumi et al., Eur. J. Pharmacol. 1997, 30, 249-258) stably expressing recombinant hSERT were maintained with media (DMEM high glucose with 10% FBS, 300 ug/ml G418 and 2 mM L-Glutamine) and incubated at 37° C. with 5% CO2. Cells are released from culture flasks using PBS for 1-2 minutes. The cells were subsequently centrifuged at 1000 g′ s for 5 minutes and resuspended in PBS prior to being used in the membrane preparation.
(§2) Cell membranes were prepared using a membrane preparation buffer of 50 mM TRIS (pH 7.4). Cell membranes were prepared from a single cube (7.5×10^9 cells total). Cells were homogenized using a Polytron (setting medium for a 4 second burst). The homogenate was then centrifuged at 48,000×g for 15 minutes, the supernatant subsequently removed and discarded, and the pellet resuspended with fresh buffer. After a second centrifugation, the pellet was re-homogenized and brought to a final volume determined during the assay. Typically, membrane portions were aliquoted in 3 mg/ml (w:v). and stored at −80° C.
For Scintillation Proximity Assay IC50/Ki determination, 50 mM Tris-HCl and 300 mM NaCl, (pH 7.4) buffers were utilized. Compounds of the invention were diluted from 10 mM to 0.1 nM FAC (10 point curves, whole log/half log dilutions) via a Beckman Biomek 2000 using a serial dilution protocol. The test compounds were then transferred (20 ul/well) and the [^3H]-Citalopram radioligand was added at 50 ul/well. Membrane and beads were prepared to a ratio of 10 ug:0.7 mg, with 0.7 mg PVT-WGA Amersham beads (Cat# RPQ0282V) added per well. 130 ul of the membrane: bead mixture was added to the assay plate. The mixtures were allowed to stand at room temperature for one hour, and were then counted on a Packard TopCount LCS, a generic Scintillation Proximity Assay counting protocol settings (Energy Range: Low, Efficiency Mode: Normal, Region A: 1.50-35.00, Region B: 1.50-256.00, Count Time (min.): 0.40, Background Subtract: none, Half-Life Correction: no, Quench Indicator: tSIS, Platemap blank subtraction: No, Cross talk reduction: Off).
(§3) The % inhibition was calculated for each compound tested [(Compound counts per minute (CPM) at maximum concentration-Non-Specific CPM)/Total CPM*100]. The concentration producing 50% inhibition (IC50) was determined using an iterative non-linear curve fitting technique with Activity Base/Xlfit using the following equation:
(§4) where max=total binding, min=non specific binding, x=concentration (M) of the tested compound and n=Hill slope. The inhibition dissociation constant (Ki) of each compound was determined according to the method of Cheng-Prusoff and then converted into negative logarithm (pKi) of the Ki.

[2] = target: T2, Human Norepinephrine Transporter (hNET) (Homo sapiens, UniProt P23975); test: hNET scintillation proximity assay (SPA), competition with [3H]-Nisoxetine; type: binding; settings: pKi, membranes of HEK-293 cells expressing recombinant hNET, read-out: NET (converted)
T2 construct: expressed in transfected cells; host or cells: HEK-293 (Clone: HEK-hNET #2), membrane preparation
T2 sequence (P23975 whole entry): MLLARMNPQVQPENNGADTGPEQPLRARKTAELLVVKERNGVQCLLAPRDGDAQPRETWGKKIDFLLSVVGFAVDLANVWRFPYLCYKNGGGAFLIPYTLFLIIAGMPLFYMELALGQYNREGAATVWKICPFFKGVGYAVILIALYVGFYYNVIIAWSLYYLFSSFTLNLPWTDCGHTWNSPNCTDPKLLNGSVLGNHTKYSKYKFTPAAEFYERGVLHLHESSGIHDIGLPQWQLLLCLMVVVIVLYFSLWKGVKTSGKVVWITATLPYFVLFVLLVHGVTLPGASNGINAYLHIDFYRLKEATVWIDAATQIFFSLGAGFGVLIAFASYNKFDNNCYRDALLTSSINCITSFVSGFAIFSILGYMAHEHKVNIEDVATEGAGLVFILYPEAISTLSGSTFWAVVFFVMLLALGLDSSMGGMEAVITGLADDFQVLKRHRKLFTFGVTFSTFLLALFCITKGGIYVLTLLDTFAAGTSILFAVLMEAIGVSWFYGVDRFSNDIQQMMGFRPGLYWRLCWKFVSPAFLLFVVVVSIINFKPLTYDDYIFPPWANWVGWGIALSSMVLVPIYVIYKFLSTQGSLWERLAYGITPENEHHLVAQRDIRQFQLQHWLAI
Description: Screening for compounds active at Human Norepinephrine Transporter (hNET) Using a Scintillation Proximity Assay (SPA)
This assay was used to determine the affinity of ligands for the hNET transporter by competition with [^3H]-Nisoxetine. As in the hSERT assay of the above example, receptor-containing membranes were pre-coupled to the SPA beads and the binding of the appropriate radioligand to the transporter was measured. The light emission was proportional to the amount of bound radioligand, with unbound radioligand producing no signal.
as §1, with “hNET (Clone: HEK-hNET #2)” for “hSERT”, “hi” for “high”, “were” for “are”
as §2, with “3-6” for “3”
^3[H] Nisoxetine radioligand (Amersham Cat. # TRK942 or Perkin Elmer Cat. # NET1084, specific activity: 70-87 Ci/mmol, stock concentration: 1.22e-5 M, final concentration: 8.25e-9 M), and 50 mM Tris-HCl, 300 mM NaCl, (pH 7.4) buffers were used for Scintillation Proximity Assay IC50/Ki determination. Compounds of the invention were diluted from 10 mM to 0.1 nM FAC (10 point curves, whole log/half log dilutions) via a Beckman Biomek 2000 using a serial dilution protocol. The test compounds were then transferred (20 ul/well) and the radioligand was added at 50 ul/well. Membrane and beads were prepared to a ratio of […], with 0.7 mg PVT-WGA Amersham beads (Cat# RPQ0282V) added per well. […] of the membrane: bead mixture was added to the assay plate. The mixtures were allowed to stand at room temperature for one hour, and were then counted on a Packard TopCount LCS, a generic SPA counting protocol settings (Energy Range: Low, Efficiency Mode: Normal, Region A: 1.50-35.00, Region B: 1.50-256.00, Count Time (min.): 0.40, Background Subtract: none, Half-Life Correction: no, Quench Indicator: tSIS, Platemap blank subtraction: No, Cross talk reduction: Off).
as §3, with “CPM” for “counts per minute (CPM)”
as §4

SMILES | Ki [1] [nM] | Ki [2] [nM]
COc1ccc(C2CNCCCN2c2ccccc2)cc1 (centres unmarked) [Compound 14, 2-(4-Methoxy-phenyl)-1-phenyl-[1,4]diazepane] | 164 | 
c1ccc([C@H]2CNCCO[C@@H]2c2ccccc2)cc1 [Compound 5, (6S,7S)-6,7-Diphenyl-[1,4]oxazepane] | 684 | 133
Fc1ccccc1[C@@H]1OCCNC[C@@H]1c1ccccc1 [Compound 9, (6S,7R)-7-(2-Fluoro-phenyl)-6-phenyl-[1,4]oxazepane] | 398 | 275
c1ccc([C@H]2CNCCO[C@H]2c2ccccc2)cc1 [Compound 6, (6S,7R)-6,7-Diphenyl-[1,4]oxazepane] |  | 417
c1ccc([C@H]2CCCNC[C@@H]2c2ccccc2)cc1 [Compound 3, (3S,4S)-3,4-Diphenyl-azepane] | 226 | 77.2
COc1ccc(C2CCNCCN2c2ccccc2)cc1 (centres unmarked) [Compound 13, 7-(4-Methoxy-phenyl)-1-phenyl-[1,4]diazepane] | 105 | 676
COc1ccccc1[C@@H]1OCCNC[C@@H]1c1ccccc1 [Compound 7, (6S,7R)-7-(2-Methoxy-phenyl)-6-phenyl-[1,4]oxazepane] | 398 | 106
COc1ccc([C@@H]2OCCNC[C@@H]2c2ccccc2)cc1 [Compound 8, (6S,7R)-7-(4-Methoxy-phenyl)-6-phenyl-[1,4]oxazepane] | 34.7 | 
Fc1ccc([C@@H]2OCCNC[C@@H]2c2ccccc2)cc1 [Compound 10, (6S,7R)-7-(4-Fluoro-phenyl)-6-phenyl-[1,4]oxazepane] | 234 | 432
c1ccc([C@H]2CCNCC[C@@H]2c2ccccc2)cc1 [Compound 4, (4S,5S)-4,5-Diphenyl-azepane] | 468 | 741
c1ccc([C@H]2CCNCC[C@H]2c2ccccc2)cc1 [Compound 1, (4S,5R)-4,5-Diphenyl-azepane] | 9.33 | 124

Other lines, results leading:

Ki [1] [nM] | Ki [2] [nM] | SMILES
1100 | 2040 | COc1ccccc1C1CNCCCN1c1ccccc1 (centres unmarked) [Compound 18, 2-(2-Methoxy-phenyl)-1-phenyl-[1,4]diazepane]
407 | 229 | Clc1ccc(C2CCNCCN2c2ccccc2)cc1 (centres unmarked) [Compound 15, 7-(4-Chloro-phenyl)-1-phenyl-[1,4]diazepane]
 | 214 | Fc1ccc(C2CNCCCN2c2ccccc2)cc1 (centres unmarked) [Compound 24, 2-(4-Fluoro-phenyl)-1-phenyl-[1,4]diazepane]
394 |  | Clc1ccccc1C1CNCCCN1c1ccccc1 (centres unmarked) [Compound 20, 2-(2-Chloro-phenyl)-1-phenyl-[1,4]diazepane]
407 | 335 | c1ccc(C2CCNCCN2c2ccccc2)cc1 (centres unmarked) [Compound 12, 1,7-Diphenyl-[1,4]diazepane]
3.98 | 30.9 | COc1ccccc1[C@H]1CCNCC[C@H]1c1ccccc1 [Compound 2, (4S,5R)-4-(2-Methoxy-phenyl)-5-phenyl-azepane]
785 | 282 | c1ccc(C2CNCCCN2c2ccccc2)cc1 (centres unmarked) [Compound 11, 1,2-Diphenyl-[1,4]diazepane]
73.3 | 219 | Clc1ccccc1C1CCNCCN1c1ccccc1 (centres unmarked) [Compound 19, 7-(2-Chloro-phenyl)-1-phenyl-[1,4]diazepane]
339 | 263 | Clc1ccc(C2CNCCCN2c2ccccc2)cc1 (centres unmarked) [Compound 16, 2-(4-Chloro-phenyl)-1-phenyl-[1,4]diazepane]
3630 |  | Fc1ccc(C2CCNCCN2c2ccccc2)cc1 (centres unmarked) [Compound 23, 7-(4-Fluoro-phenyl)-1-phenyl-[1,4]diazepane]
170 | 422 | COc1ccccc1C1CCNCCN1c1ccccc1 (centres unmarked) [Compound 17, 7-(2-Methoxy-phenyl)-1-phenyl-[1,4]diazepane]
